# In patent US7105566B2, “Methods of treatment during vascular procedures” (Allergan, Inc., priority 2002, dated 2006):
# Several values for one entry are separate records, joined by “and”; a condition that tells them apart may be missing. Equal values may be shown once.
# How the values were obtained:
# [1] = test system: female ZDF rats; experiment: Serum triglycerides and cholesterol in female ZDF rats, Compound 1 and Compound 2 at 10 mg/kg; format: in vivo, rat; conditions: 10 mg/kg oral
# Procedure: A similar experiment to that described above was performed. Briefly, female ZDF rats (12 weeks old) were fed either a PM 5008 diet or a GMI 13004 diet. Control vehicle consisted of 2% DMSO and 98% corn oil. Compound 1 and Compound 2 were administered at a dosage of 10 mg/kg body weight. Dosings were administered at approximately 8 a.m. Serum was collected on the first day of dosing at approximately 8 a.m. (Day 1, 0 hour) and 2 p.m. (Day 1, 6 hour); the fourth day of dosing at approximately 8 a.m. (Day 4, 0 hour); and the last day of dosing at approximately 8 a.m. (Day 7, 0 hour) and 2 p.m. (Day 7, 6 hour). The levels of triglycerides and cholesterol in the serum samples were measured. The results are shown in Table 2 and are illustrated graphically in FIGS. 3A and 3B.
# [2] = test system: male SJL mice; experiment: Serum triglycerides (STG) in male SJL mice; format: in vivo, mouse
# Procedure: Male SJL mice were dosed orally with vehicle, Compound 1 (an RAR pan-antagonist), or Compound 3 (an RARE antagonist) for 4 consecutive days. The structure and synthesis of Compound 1 is described in Example I. The structure of Compound 3 is shown below, and the compound was synthesized using routine methods:
# The test compounds were dissolved in corn oil and given at a dosage/volume of 20 mg/5 ml/kg.
# On day 3, serum triglycerides (STG) were determined from samples collected at 7 a.m.
# (§1) On day 4, animals were fasted after dosing, starting at 8 a.m. Following 6 hours of fasting, blood samples were collected prior to intravenous injection of WR-1339 at 100 mg/5 ml/kg. Additional serum samples were collected at 1 and 2 hours after WR-1339 injection. WR-1339 is a detergent that inactivates lipoprotein lipase and thus prevents the removal of triglycerides from circulation. By measuring the increase of STG after WR-1339 administration in fasted animals, the hepatic triglyceride (HTG) output during fasting can be estimated.
# (§2) Due to the lack of effect of Compound 3 at 20 mg/kg, the dose was increased to 100 mg/kg in the same set of mice. STG was determined on day 3 prior to dosing (Day 3, 8 a.m.). […] To ensure that Compound 3 would be bioavailable, Compound 3 was dissolved in DMSO and given by intraperitoneal injections, once at 4 p.m. on day 3 and once at 8 a.m. on day 4, at a dosage of 100 mg/kg/injection. Administration of WR-1339 and blood collections on day 4 were similarly conducted as described above.
# [3] = test system: male SJL mice; experiment: Hepatic triglyceride (HTG) output after WR-1339 injection in fasted male SJL mice; format: in vivo, mouse
# Procedure: as §1, §2
# [4] = test system: chronic hypertriglyceridemic patients; conditions: de Man et al. 2000; cited from earlier work
# [5] = GMI 13004 diet, group mean of 5 rats, first day of dosing, 2 p.m.
# [6] = GMI 13004 diet, group mean of 5 rats, first day of dosing, about 8 a.m. (baseline)
# [7] = GMI 13004 diet, group mean of 5 rats, fourth day of dosing, 8 a.m.
# [8] = GMI 13004 diet, group mean of 5 rats, last day of dosing, 2 p.m.
# [9] = GMI 13004 diet, group mean of 5 rats, last day of dosing, 8 a.m.
# [10] = GMI 13004 diet, individual animals, first day of dosing, 2 p.m.
# [11] = GMI 13004 diet, individual animals, first day of dosing, about 8 a.m. (baseline)
# [12] = GMI 13004 diet, individual animals, fourth day of dosing, 8 a.m.
# [13] = GMI 13004 diet, individual animals, last day of dosing, 2 p.m.
# [14] = GMI 13004 diet, individual animals, last day of dosing, 8 a.m.
compound,measurement,setting,value
Cc1ccc(C2=CC(C)(C)Oc3c(Br)cc(C(=O)Nc4ccc(C(=O)O)c(F)c4)cc32)cc1 [Compound 2],effect on lowering serum cholesterol,[1],more modest effect
same,serum triglycerides as % of pre-treatment levels,[1],about 40%
same,"Cholesterol day 1, 6 hr, Mean",[1]; [5],106
same,"Triglycerides day 1, 6 hr, Mean",[1]; [5],1321
same,"Cholesterol day 1, 0 hr, Mean",[1]; [6],119
same,"Triglycerides day 1, 0 hr, Mean",[1]; [6],1471
same,"Cholesterol day 4, 0 hr, Mean",[1]; [7],77
same,"Triglycerides day 4, 0 hr, Mean",[1]; [7],571
same,"Cholesterol day 7, 6 hr, Mean",[1]; [8],62
same,"Triglycerides day 7, 6 hr, Mean",[1]; [8],602
same,"Cholesterol day 7, 0 hr, Mean",[1]; [9],66
same,"Triglycerides day 7, 0 hr, Mean",[1]; [9],560
same,"Cholesterol day 1, 6 hr",[1]; [10],114 and 84 and 90 and 108 and 132
same,"Triglycerides day 1, 6 hr",[1]; [10],1260 and 1338 and 1140 and 1344 and 1524
same,"Cholesterol day 1, 0 hr",[1]; [11],120 (2×) and 96 (2×) and 162
same,"Triglycerides day 1, 0 hr",[1]; [11],1464 and 1194 and 1284 and 1668 and 1746
same,"Cholesterol day 4, 0 hr",[1]; [12],84 and 66 and 72 (2×) and 90
same,"Triglycerides day 4, 0 hr",[1]; [12],642 and 804 and 210 and 630 and 570
same,"Cholesterol day 7, 6 hr",[1]; [13],72 and 60 (2×) and 54 and 66
same,"Triglycerides day 7, 6 hr",[1]; [13],402 and 600 and 360 and 738 and 912
same,"Cholesterol day 7, 0 hr",[1]; [14],78 (2×) and 60 (2×) and 54
same,"Triglycerides day 7, 0 hr",[1]; [14],294 and 588 and 474 and 726 and 720
Cc1ccc(C2=CCC(C)(C)c3cc(O)c(C(=O)Nc4ccc(C(=O)O)c(F)c4)cc32)cc1 [Compound 3],"non-fasting STG (Day 3, 8 a.m.)",[2]; 20 mg/kg oral daily,not observed
same,"STG 16 hours after a single intraperitoneal dose (Day 4, 8 a.m.)",[2]; 100 mg/kg intraperitoneal in DMSO,clear lowering of STG
same,"STG on day 3 prior to dosing (Day 3, 8 a.m.)",[2]; 100 mg/kg oral,no lowering of STG was observed
same,"STG after fasting (Day 4, 2 p.m.)",[2]; 100 mg/kg/injection intraperitoneal,effect disappeared after fasting
same,HTG output after WR-1339 injection,"[3]; 20 mg/kg oral daily for 4 days, fasted",not observed
same,HTG output,"[3]; 100 mg/kg/injection intraperitoneal, WR-1339, fasted",reduced
CC(C)c1c(C(=O)Nc2ccccc2)c(-c2ccccc2)c(-c2ccc(F)cc2)n1CC[C@@H](O)C[C@@H](O)CC(=O)O [atorvastatin],effect on impaired vasodilation,[4],reverse the impaired vasodilation
